# Measured values reported in patent US9328369B2, “Process for production of useful substance, and surfactant for use in the process” (priority 2009, dated 2016).
# Tested on: Escherichia coli (α)
# Assay: Screening of secretion efficiency, alkaline phosphatase expressing strain
# Format: cell-based
# Details: surfactant 1 wt %; 37° C., 1 hour; ELISA, anti-His-tag antibody
# From the text: An alkaline phosphatase (phoA) gene of an Escherichia coli strain W3110 was amplified by the PCR method using primers 1 and 2 (Table 4). After being treated with restriction enzymes NdeI and BamHI, a PCR fragment was bound with an NdeI restriction enzyme site and with a BamHI restriction enzyme site of a pET-22b plasmid (product of Novagen). Then, the plasmid was transformed into an AG1 (DE3) Escherichia coli strain formed by transforming an Escherichia coli strain AG1 (product of TOYOBO Co., LTD.) with use of a λDE3 Lysogenization Kit (product of Novagen). In this manner, an alkaline phosphatase expressing strain (a) was formed.
# A pdxA gene of an Escherichia coli strain W3110 was amplified by the PCR method using primers 5 and 6 (Table 4). After being treated with restriction enzymes NdeI and BamHI, a PCR fragment was bound to an NdeI restriction enzyme site and a BamHI restriction enzyme site of a pET-22b plasmid (product of Novagen). Then, the plasmid was transformed into an AG1 (DE3) Escherichia coli strain to form a PdxA expressing strain (γ).
# In this manner, culture solutions were prepared.
# (2) The strains were collected using a centrifuge (4,000 G, 4° C., 15 minutes). Each of the collected Escherichia coli strains was resuspended in 1 mL of a TB culture solution (product of Difco) and chloramphenicol (30 mg/L) and IPTG (100 μM) were added thereto. Shake culture at 37° C. for 3 hours induced expression of phoA, torA, and pdxA.
# (3) Subsequently, harvesting using a centrifuge was carried out again (4,000 G, 4° C., 15 minutes). Each of the collected Escherichia coli strains was resuspended in 2.5 mL of a Tris-NaCl buffer solution (50 mM Tris (pH 7.5), 100 mM NaCl). The resulting solution was divided into 25-μL portions at a time to be mixed with 25 μL of a Tris-NaCl buffer solution.
# (4) Then, the solution was allowed to stand at 37° C. for 1 hour. The supernatant solution was collected and diluted in a Tris-NaCl buffer solution to a proper concentration. Here, the quantification of the recombinant protein in the resulting solution was carried out by ELISA assay with use of an anti-His-tag antibody. The sample prior to the centrifugation in the process (3) was treated with ultrasonic waves (200 W, 10 minutes) and the quantification of the recombinant protein therein was similarly carried out by ELISA assay with use of an anti-His-tag antibody. The ratio of lysed bacteria was obtained with use of Escherichia coli (γ), and the secretion efficiencies of the recombinant proteins of Escherichia coli (α) and (β) were calculated by using the following formula. […] Secretion efficiency (%)=100×{(X/Y)−Z}.
# In the formula, “X” represents the amount of the recombinant protein in the culture solution after removal of bacterial cells by centrifugation in the case of using Escherichia coli (α) or (β).
# “Y” represents the amount of the whole recombinant protein in the culture solution in the case of using Escherichia coli (α) or (β).
# “Z” represents the ratio of lysed bacteria obtained with use of Escherichia coli (γ), which is determined by the following formula: Z=Z1/Z2.
# In the formula, “Z1” represents the amount of the recombinant protein in the culture solution which remains after removal of bacterial cells by centrifugation in the case of using Escherichia coli (γ).
# “Z2” represents the amount of the whole recombinant protein in the culture solution in the case of using Escherichia coli (γ).
# Escherichia coli (α) and (β) were each cultured in the same manner as in the above case except that polyoxyethylene (3 mol) tridecyl ether sodium acetate as the surfactant (A) was added right after the resuspension of the Escherichia coli in the buffer solution in the process (3) of A-0, in an amount of 1% by weight on the basis of the weight of the suspension of the bacterium. The secretion efficiency was calculated according to the above-mentioned definition.
row,Compound,Secretion efficiency (%) Escherichia coli (α) [%]
1,Sodium cocaminopropionate [A-7],85.0
2,"CCCCCCCCCCCCCCCC[N+](C)(C)C.[Cl-] [A-14, Cetyl trimethyl ammonium chloride]",37.8
3,Cured palm oil fatty acid amidopropyl dimethyl aminoacetate betaine [A-6],87.6
4,Polyoxyethylene(3 mol)tridecyl ether sodium acetate [A-1],100.0
